Here are results for 15 molecules from patent US6762190B2, “Thienylalanine derivatives as inhibitors of cell adhesion” (Aventis Pharma S.A. Deutschland GmbH Genentech, Inc., priority 1999, dated 2004).

The target in experiment [1] is T1, human vitronectin receptor (VnR) αvβ3 (Homo sapiens, UniProt P05106+P06756).
T1 construct: Human vitronectin receptor was obtained from the human placenta according to the method of Pytela et al; from tissue; host or cells: human placenta
The experiment in a line: Kistrin binding assay (αvβ3 ELISA test, K/VnR). As to conditions: inhibition of binding of kistrin to human vitronectin receptor. The text has this:
The inhibition of the binding of kistrin to human vitronectin receptor (VnR) described below is a test method by which the antagonistic action of the compounds of the invention on the vitronectin receptor αvβ3 can be determined (αvβ3 ELISA Test; the test method is abbreviated as “K/VnR” in the listing of the test results).
Kistrin was purified according to the methods of Dennis et al., as described in Proc. Natl. Acad. Sci. USA 87 (1989) 2471 and Proteins: Structure, Function and Genetics 15(1993)312.
Purification of Human Vitronectin Receptor (αvβ3)
Human vitronectin receptor was obtained from the human placenta according to the method of Pytela et al., Methods Enzymol. 144 (1987) 475. Human vitronectin receptor αvβ3 can also be obtained from some cell lines (for example from 293 cells, a human embryonic kidney cell line) which are cotransfected with DNA sequences for both subunits αv and β3 of the vitronectin receptor. The subunits were extracted with octyl glycoside and then chromatographed through concanavalin A, heparin-Sepharose and S-300.
Murine monoclonal antibodies which are specific for the β3 subunits of the vitronectin receptor, were prepared according to the method of Newman et al., Blood (1985) 227, or by a similar process. The rabbit Fab 2 anti-mouse Fc conjugate to horseradish peroxidase (anti-mouse Fc HRP) was obtained from Pel Freeze (Catalog No. 715 305-1).
The ability of substances to inhibit the binding of kistrin to the vitronectin receptor can be determined using an ELISA test. For this purpose, Nunc 96-well microtiter plates were coated with a solution of kistrin (0.002 mg/ml) according to the method of Dennis et al., as described in Proteins: Structure, Function and Genetics 15 (1993) 312. The plates were then washed twice with PBS/0.05% Tween-20 and blocked by incubating (60 min) with bovine serum albumin (BSA, 0.5%, RIA grade or better) in buffer solution (Tris-HCl (50 mM), NaCl (100 mM), MgCl2 (1 mM), CaCl2 (1 mM), MnCl2 (1 mM), pH 7). Solutions of known inhibitors and of the test substances were prepared in concentrations from 2×10^−12 to 2×10^−6 mol/l in assay buffer (BSA (0.5%, RIA grade or better); Tris-HCl (50 mM), NaCl (100 mM), MgCl2 (1 mM), CaCl2 (1 mM), MnCl2 (1 mM), pH 7). The blocked plates were emptied, and in each case 0.025 ml of this solution which contained a defined concentration (2×10^−12 to 2×10^−6 mol/l) either of a known inhibitor or of a test substance, were added to each well. 0.025 ml of a solution of the vitronectin receptor in assay buffer (0.03 mg/ml) is pipetted into each well of the plate and the plate was incubated at room temperature for 60-180 min on a shaker. In the meantime, a solution (6 ml/plate) of a murine monoclonal antibody specific for the β3 subunit of the vitronectin receptor was prepared in assay buffer (0.0015 mg/ml). A second rabbit antibody (0.001 ml of stock solution/6 ml of the murine monoclonal anti-β3 antibody solution) which is an anti-mouse Fc HRP antibody conjugate was added to this solution, and this mixture of murine anti-β3 antibody and rabbit anti-mouse Fc HRP antibody conjugate was incubated during the time of the receptor-inhibitor incubation. The test plates were washed four times with PBS solution which contains 0.05% Tween-20, and in each case 0.05 ml/well of the antibody mixture was pipetted into each well of the plate and incubated for 60-180 min. The plate was washed four times with PBS/0.05% Tween-20 and then developed with 0.05 ml/well of a PBS solution which contained 0.67 mg/ml of o-phenylenediamine and 0.012% of H2O2. Alternatively to this, o-phenylenediamine can be employed in a buffer (pH 5) which contains Na3PO4 and citric acid. The color development was stopped using 1 N H2SO4 (0.05 ml/well). The absorption for each well was measured at 492-405 nm and the data were evaluated by standard methods.

Experiment [2] deals with 293 cells cotransfected with αv and β3 subunits of the vitronectin receptor αvβ3, binding to human vitronectin (Vn) (Homo sapiens, UniProt P05106+P06756). The experiment in a line: Vitronectin/293 cell test (inhibition of binding of 293 cells to human vitronectin). The experiment is classed as cell-based. The settings on record: inhibition of binding of αvβ3-expressing 293 cells to human vitronectin. The procedure: 2) Vitronectin/293 Cell Test
In this test the inhibition of binding of 293 cells to human vitronectin (Vn) by the compounds of the invention is determined (the test method is abbreviated as “Vn/293 cell test” in the listing of the test results).
Purification of Human Vitronectin
Human vitronectin was isolated from human plasma and purified by affinity chromatography according to the method of Yatohgo et al., Cell Structure and Function 23 (1988) 281.
293 cells, a human embryonic kidney cell line, which were cotransfected with DNA sequences for the αv and β3 subunits of the vitronectin receptor αvβ3, were selected for a high rate of expression (>500,000 αvβ3 receptors/cell) according to the FACS method. The selected cells were cultured and sorted again by means of FACS in order to obtain a stable cell line (15 D) with expression rates >1,000,000 copies of αvβ3 per cell.
A Linbro 96-well tissue culture plate with a flat bottom was coated overnight at 4° C. with human vitronectin (0.01 mg/ml, 0.05 ml/well) in phosphate-buffered saline solution (PBS) and then blocked with 0.5% strength BSA (bovine serum albumin). Solutions of the test substances from 10^−10 mol/l to 2×10^−3 mol/l in glucose-containing DMEM medium were prepared and 0.05 ml/well of the solution were added to the plate in each case. The cells which expressed high levels of αvβ3 (for example 15 D) were suspended in glucose-containing DMEM medium and the suspension was adjusted to a content of 25,000 cells/0.05 ml of medium. 0.05 ml of this cell suspension was added to each well and the plate was incubated at 37° C. for 90 min. The plate was washed 3 times with warm PBS in order to remove unbound cells. The bound cells were lyzed in citrate buffer (25 mM, pH 5.0) which contained 0.25% Triton X-100. The hexoseamidase substrate p-nitrophenyl-N-acetyl-β-D-glucosaminide was then added and the plate was incubated at 37° C. for 90 min. The reaction was stopped with a glycine (50 mM)/EDTA (5 mM) buffer (pH 10.4) and the absorption of each well was measured at 405 to 650 nm. The data were analyzed according to standard methods.

Chain of 293 cells cotransfected with αv and β3 subunits of the vitronectin receptor αvβ3, binding to human vitronectin (Vn) (P05106 whole entry): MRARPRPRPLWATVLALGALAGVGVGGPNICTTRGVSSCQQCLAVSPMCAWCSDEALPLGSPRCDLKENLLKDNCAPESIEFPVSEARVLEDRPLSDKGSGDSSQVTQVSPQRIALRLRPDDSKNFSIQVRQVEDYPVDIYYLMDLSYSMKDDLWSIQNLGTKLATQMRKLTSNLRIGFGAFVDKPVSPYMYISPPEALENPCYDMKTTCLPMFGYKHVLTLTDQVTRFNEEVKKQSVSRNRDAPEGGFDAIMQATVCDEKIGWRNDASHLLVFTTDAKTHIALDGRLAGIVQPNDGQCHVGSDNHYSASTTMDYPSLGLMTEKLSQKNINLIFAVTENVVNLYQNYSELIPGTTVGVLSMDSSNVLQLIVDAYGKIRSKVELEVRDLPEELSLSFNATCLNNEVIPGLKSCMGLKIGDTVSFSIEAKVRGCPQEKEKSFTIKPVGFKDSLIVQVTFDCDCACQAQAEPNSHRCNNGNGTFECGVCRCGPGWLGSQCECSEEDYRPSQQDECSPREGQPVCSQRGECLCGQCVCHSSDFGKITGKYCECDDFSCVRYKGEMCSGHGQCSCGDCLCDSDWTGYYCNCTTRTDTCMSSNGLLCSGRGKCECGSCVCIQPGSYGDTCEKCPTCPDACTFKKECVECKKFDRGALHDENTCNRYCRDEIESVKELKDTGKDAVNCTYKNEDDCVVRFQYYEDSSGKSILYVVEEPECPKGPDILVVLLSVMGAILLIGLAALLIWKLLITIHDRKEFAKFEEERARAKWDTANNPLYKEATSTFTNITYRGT
Chain of 293 cells cotransfected with αv and β3 subunits of the vitronectin receptor αvβ3, binding to human vitronectin (Vn) (P06756 whole entry): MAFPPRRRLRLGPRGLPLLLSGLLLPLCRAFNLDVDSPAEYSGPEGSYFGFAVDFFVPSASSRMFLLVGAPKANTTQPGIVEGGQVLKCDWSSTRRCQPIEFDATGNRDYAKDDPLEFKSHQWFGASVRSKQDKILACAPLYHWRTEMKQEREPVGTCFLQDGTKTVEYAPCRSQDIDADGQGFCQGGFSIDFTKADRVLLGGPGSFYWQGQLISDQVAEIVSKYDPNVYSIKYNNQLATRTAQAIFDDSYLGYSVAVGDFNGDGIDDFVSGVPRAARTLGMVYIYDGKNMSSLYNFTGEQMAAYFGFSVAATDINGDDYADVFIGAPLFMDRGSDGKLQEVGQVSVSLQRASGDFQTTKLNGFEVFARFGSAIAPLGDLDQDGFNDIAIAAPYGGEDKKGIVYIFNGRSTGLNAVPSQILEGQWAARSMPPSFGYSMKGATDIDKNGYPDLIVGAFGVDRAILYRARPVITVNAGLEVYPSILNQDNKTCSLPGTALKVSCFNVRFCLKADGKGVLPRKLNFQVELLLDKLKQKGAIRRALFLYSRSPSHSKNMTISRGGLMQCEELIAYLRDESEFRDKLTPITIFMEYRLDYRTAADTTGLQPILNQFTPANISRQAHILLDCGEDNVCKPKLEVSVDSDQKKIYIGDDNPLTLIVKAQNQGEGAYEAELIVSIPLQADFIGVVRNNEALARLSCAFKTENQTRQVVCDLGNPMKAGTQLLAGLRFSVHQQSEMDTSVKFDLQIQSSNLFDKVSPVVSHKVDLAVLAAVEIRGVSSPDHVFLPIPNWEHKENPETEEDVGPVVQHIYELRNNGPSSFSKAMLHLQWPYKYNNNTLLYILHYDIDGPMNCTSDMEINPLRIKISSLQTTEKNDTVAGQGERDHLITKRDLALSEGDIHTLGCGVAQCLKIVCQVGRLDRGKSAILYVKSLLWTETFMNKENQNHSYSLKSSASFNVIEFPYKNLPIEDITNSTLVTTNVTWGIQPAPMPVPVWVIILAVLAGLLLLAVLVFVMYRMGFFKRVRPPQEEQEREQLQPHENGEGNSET
T1 sequence (P06756 31-889 limits assumed): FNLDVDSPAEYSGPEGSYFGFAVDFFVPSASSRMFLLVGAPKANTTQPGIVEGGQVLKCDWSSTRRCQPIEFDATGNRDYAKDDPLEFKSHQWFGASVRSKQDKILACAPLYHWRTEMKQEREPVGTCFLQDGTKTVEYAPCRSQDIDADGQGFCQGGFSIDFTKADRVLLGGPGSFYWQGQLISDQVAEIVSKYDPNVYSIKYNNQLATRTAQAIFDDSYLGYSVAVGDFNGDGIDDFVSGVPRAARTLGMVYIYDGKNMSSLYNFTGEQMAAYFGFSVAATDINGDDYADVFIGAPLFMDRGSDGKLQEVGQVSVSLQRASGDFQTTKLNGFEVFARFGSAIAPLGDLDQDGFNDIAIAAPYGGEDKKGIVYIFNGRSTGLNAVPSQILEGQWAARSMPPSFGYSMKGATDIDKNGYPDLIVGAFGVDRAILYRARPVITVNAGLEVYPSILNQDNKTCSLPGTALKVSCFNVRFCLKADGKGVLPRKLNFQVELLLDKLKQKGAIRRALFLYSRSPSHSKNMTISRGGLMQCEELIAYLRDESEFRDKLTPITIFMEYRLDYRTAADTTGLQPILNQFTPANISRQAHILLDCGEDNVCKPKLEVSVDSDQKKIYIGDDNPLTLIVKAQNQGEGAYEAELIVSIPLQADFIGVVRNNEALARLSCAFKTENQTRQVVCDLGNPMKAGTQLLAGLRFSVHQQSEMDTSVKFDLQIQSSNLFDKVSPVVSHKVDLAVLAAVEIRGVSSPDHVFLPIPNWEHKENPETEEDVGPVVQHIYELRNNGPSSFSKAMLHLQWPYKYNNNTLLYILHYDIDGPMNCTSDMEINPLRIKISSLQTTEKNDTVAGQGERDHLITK
T1 sequence (P06756 891-1048 partner limits assumed): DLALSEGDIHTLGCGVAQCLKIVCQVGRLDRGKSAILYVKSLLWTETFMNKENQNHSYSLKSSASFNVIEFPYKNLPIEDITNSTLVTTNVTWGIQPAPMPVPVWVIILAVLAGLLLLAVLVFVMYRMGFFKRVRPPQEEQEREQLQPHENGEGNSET
T1 sequence (P05106 27-788): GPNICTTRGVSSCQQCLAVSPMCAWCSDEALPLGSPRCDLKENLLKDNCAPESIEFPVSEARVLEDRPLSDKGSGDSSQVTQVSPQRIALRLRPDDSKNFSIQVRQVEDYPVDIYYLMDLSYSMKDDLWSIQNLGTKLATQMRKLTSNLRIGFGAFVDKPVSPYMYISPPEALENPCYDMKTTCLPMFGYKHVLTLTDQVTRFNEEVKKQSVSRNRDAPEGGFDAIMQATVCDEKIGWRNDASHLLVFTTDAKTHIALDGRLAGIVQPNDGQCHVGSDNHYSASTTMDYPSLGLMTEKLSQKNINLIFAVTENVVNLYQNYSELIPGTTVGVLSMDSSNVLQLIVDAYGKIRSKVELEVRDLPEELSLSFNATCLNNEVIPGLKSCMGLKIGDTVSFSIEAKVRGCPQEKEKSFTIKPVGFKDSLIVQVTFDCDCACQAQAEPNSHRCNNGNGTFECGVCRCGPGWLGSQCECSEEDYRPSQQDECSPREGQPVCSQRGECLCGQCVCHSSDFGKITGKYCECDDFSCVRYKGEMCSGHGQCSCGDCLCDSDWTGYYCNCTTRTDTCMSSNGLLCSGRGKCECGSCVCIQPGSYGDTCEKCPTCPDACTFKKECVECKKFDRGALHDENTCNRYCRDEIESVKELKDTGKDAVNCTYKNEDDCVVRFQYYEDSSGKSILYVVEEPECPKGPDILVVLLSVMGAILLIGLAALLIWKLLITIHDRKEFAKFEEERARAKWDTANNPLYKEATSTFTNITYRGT

Turning to `O=C(CCCCc1ccc(C[C@H](NS(=O)(=O)c2cccc3ccccc23)C(=O)O)s1)NC1=NCCCN1` [Example 1, (2S)-2-(Naphthalene-1-sulfonylamino)-3-(5-(4-(1,4,5,6-tetrahydropyrimidin-2-ylcarbamoyl)-butyl)-thiophen-2-yl)-propionic Acid], the IC50 in experiment [1] was 23 nM; in experiment [2] it was 420 nM.

For `O=C(CCCCc1ccc(C[C@H](NS(=O)(=O)c2ccc3ccccc3c2)C(=O)O)s1)NC1=NCCCN1` [Example 2, (2S)-2-(Naphthalene-2-sulfonylamino)-3-(5-(4-(1,4,5,6-tetrahydropyrimidin-2-ylcarbamoyl)-butyl)-thiophen-2-yl)-propionic acid], the IC50 in experiment [1] worked out at 15 nM; in experiment [2] it was 330 nM.

Take `O=C(CCCCc1ccc(C[C@H](NS(=O)(=O)c2ccccc2)C(=O)O)s1)NC1=NCCCN1` [Example 3, (2S)-2-Benzenesulfonylamino-3-(5-(4-(1,4,5,6-tetrahydropyrimidin-2-ylcarbamoyl)-butyl)-thiophen-2-yl)-propionic acid]: the IC50 in experiment [1] was determined as 9.5 nM; in experiment [2], 1000 nM.

Regarding `O=C(CCCCc1ccc(C[C@H](NS(=O)(=O)c2ccc(Cl)cc2)C(=O)O)s1)NC1=NCCCN1` [Example 4, (2S)-2-(4-Chlorobenzenesulfonylamino)-3-(5-(4-(1,4,5,6-tetrahydropyrimidin-2-ylcarbamoyl)-butyl)-thiophen-2-yl)-propionic acid], the IC50 was 12 nM in experiment [1] and 850 nM in experiment [2].

`O=C(CCCCc1ccc(C[C@H](NS(=O)(=O)c2cccc(Cl)c2)C(=O)O)s1)NC1=NCCCN1` [Example 5, (2S)-2-(3-Chlorobenzenesulfonylamino)-3-(5-(4-(1,4,5,6-tetrahydropyrimidin-2-ylcarbamoyl)-butyl)-thiophen-2-yl)-propionic acid]: the IC50 came out at 15 nM in experiment [1] and 420 nM in experiment [2].

Regarding `O=C(CCCCc1ccc(C[C@H](NS(=O)(=O)c2ccc(C(F)(F)F)cc2)C(=O)O)s1)NC1=NCCCN1` [Example 6, (2S)-3-(5-(4-(1,4,5,6-Tetrahydropyrimidin-2-ylcarbamoyl)-butyl)-thiophen-2-yl)-2-(4-trifluoromethylbenzenesulfonylamino)-propionic acid], the IC50 in experiment [1] is 28 nM; in experiment [2] it was 2000 nM.

As for `O=C(CCCCc1ccc(C[C@H](NS(=O)(=O)CC(F)(F)F)C(=O)O)s1)NC1=NCCCN1` [Example 7, (2S)-3-(5-(4-(1,4,5,6-Tetrahydropyrimidin-2-ylcarbamoyl)-butyl)-thiophen-2-yl)-2-(2,2,2-trifluoroethanesulfonylamino)-propionic acid], the 50% inhibitory concentration (IC50) in experiment [1] worked out at 11 nM; in experiment [2], 400 nM.

As for `CCCS(=O)(=O)N[C@@H](Cc1ccc(CCCCC(=O)NC2=NCCCN2)s1)C(=O)O` [Example 8, (2S)-2-(Propane-1-sulfonylamino)-3-(5-(4-(1,4,5,6-tetrahydropyrimidin-2-ylcarbamoyl)-butyl)-thiophen-2-yl)-propionic acid], the figures for the IC50 in experiment [1] and in experiment [2] were 60 nM and 1000 nM, respectively.

For the molecule `CCCCS(=O)(=O)N[C@@H](Cc1ccc(CCCCC(=O)NC2=NCCCN2)s1)C(=O)O` [Example 9, (2S)-2-(Butane-1-sulfonylamino)-3-(5-(4-(1,4,5,6-tetrahydropyrimidin-2-ylcarbamoyl)-butyl)-thiopen-2-yl)-propionic acid], the IC50 in experiment [1] is 46 nM; in experiment [2], 1800 nM.

With `CC(C)(C)c1ccc(S(=O)(=O)N[C@@H](Cc2ccc(CCCCC(=O)NC3=NCCCN3)s2)C(=O)O)cc1` [Example 10, (2S)-2-(4-tert-Butylbenzenesulfonylamino)-3-(5-(4-(1,4,5,6-tetrahydropyrimidin-2-ylcarbamoyl)-butyl)-thiophen-2-yl)-propionic acid], the IC50 was determined as 95 nM in experiment [1] and 6900 nM in experiment [2].

As to `O=C(CCCCc1ccc(C[C@H](NC(=O)OCc2ccccc2)C(=O)O)s1)NC1=NCCCN1` [Example 11, (2S)-2-Benzyloxycarbonylamino-3-(5-(4-(1,4,5,6-tetrahydropyrimidin-2-ylcarbamoyl)-butyl)-thiophen-2-yl)-propionic acid], the figures for the IC50 in experiment [1] and in experiment [2] were 9 nM and 110 nM, respectively.

In the case of `O=C(CCCCc1ccc(C[C@H](NC(=O)OCC23CC4CC(CC(C4)C2)C3)C(=O)O)s1)NC1=NCCCN1` [Example 12, (2S)-2-(Adamantan-1-ylmethoxycarbonylamino)-3-(5-(4-(1,4,5,6-tetrahydropyrimidin-2-ylcarbamoyl)-butyl)-thiophen-2-yl)-propionic acid], the IC50 is 23 nM in experiment [1] and 220 nM in experiment [2].

As to `O=C(CCCCCc1ccc(C[C@H](NC(=O)OCc2ccccc2)C(=O)O)s1)NC1=NCCCN1` [Example 13, (2S)-2-Benzyloxycarbonylamino-3-(5-(5-(1,4,5,6-tetrahydropyrimidin-2-ylcarbamoyl)-pentyl)-thiophen-2-yl)-propionic acid], the IC50 in experiment [1] came to 97 nM; in experiment [2], 210 nM.

Regarding `O=C(CCC/C=C/c1ccc(C[C@H](NC(=O)OCc2ccccc2)C(=O)O)s1)NC1=NCCCN1` [Example 14, (2S)-2-Benzyloxycarbonylamino-3-(5-(5-(1,4,5,6-tetrahydropyrimidin-2-ylcarbamoyl)-pent-1-enyl)-thiophen-2-yl)-propionic acid], the results for the IC50 in experiment [1] and in experiment [2] were 40 nM and 690 nM, respectively.

Take `O=C(CC/C=C/c1ccc(C[C@H](NC(=O)OCc2ccccc2)C(=O)O)s1)NC1=NCCCN1` [Example 15, (2S)-2-Benzyloxycarbonylamino-3-(5-(4-(1,4,5,6-tetrahydropyrimidin-2-ylcarbamoyl)-but-1-enyl)-thiophen-2-yl)-propionic acid]: the IC50 came out at 35 nM in experiment [1] and 580 nM in experiment [2].

In general, IC50 refers to the point on the concentration scale where inhibition reaches its midpoint. The low end stands for greater potency, the high end for weaker potency.
